Laboratory results taken from patent publication US11230526B1, “Cylcoalkenyl derivatives useful as agonists of the GPR120 and/or GPR40 receptors” (Janssen Pharmaceutica NV, priority 2018, dated 2022).
pEC50: −log10 of the molar value.

Experiments:
[1] = target: T1, Human GPR120 short form (Homo sapiens, UniProt Q5NUL3); test: Human GPR120 calcium flux assay, Procedure Calcium B (4200 cells/well); assay type: cell-based
T1 construct: expressed in transfected cells
T1 sequence (Q5NUL3 1-361): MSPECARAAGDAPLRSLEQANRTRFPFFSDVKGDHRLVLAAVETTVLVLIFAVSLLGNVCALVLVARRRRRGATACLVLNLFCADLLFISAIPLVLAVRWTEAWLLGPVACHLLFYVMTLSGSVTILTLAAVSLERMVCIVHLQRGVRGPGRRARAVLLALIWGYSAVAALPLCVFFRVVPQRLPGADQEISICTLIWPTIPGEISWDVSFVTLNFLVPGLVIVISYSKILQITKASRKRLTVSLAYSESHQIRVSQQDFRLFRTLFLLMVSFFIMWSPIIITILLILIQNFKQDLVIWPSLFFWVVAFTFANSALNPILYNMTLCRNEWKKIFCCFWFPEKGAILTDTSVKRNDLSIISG
In short: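 Agonist EC50 came from a four-parameter fit of RFU (Fmax−Fmin) read over 300 s on FLIPR. Cells were HEK293 stably transfected with human GPR120 (NM_001195755.1) at 4200 per well, serum-starved 1 h and loaded with Fluo-4 NW dye with probenecid before ligand addition.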

[2] = target: T2, human GPR40 (Homo sapiens, UniProt O14842); test: GPR40 calcium flux assay, human GPR40; assay type: cell-based; details: HEK293 cells stably expressing GPR40; table does not say human or rat
T2 construct: expressed in transfected cells
In short: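 Cells preincubated 1 h at 37° C. in HBSS, 20 mM HEPES, 0.1% BSA, then Fluo 8 calcium dye 30 min at 37° C. and 15 min at room temperature.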

T2 sequence (O14842 whole entry): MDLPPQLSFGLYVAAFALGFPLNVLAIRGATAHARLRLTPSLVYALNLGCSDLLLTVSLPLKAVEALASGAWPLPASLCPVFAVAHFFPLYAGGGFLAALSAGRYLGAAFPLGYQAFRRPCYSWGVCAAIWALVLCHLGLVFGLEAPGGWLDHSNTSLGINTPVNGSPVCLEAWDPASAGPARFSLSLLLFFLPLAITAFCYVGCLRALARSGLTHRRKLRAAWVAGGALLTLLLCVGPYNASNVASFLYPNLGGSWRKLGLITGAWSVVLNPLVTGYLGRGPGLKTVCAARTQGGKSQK

| SMILES | pEC50 [1] | pEC50 [2] |
| --- | --- | --- |
| Cc1ccc(C2=C(COc3ccc(CCC(=O)O)c(C(F)(F)F)c3)CCC2)cc1F [Compound 282, 3-[4-[[2-(3-fluoro-4-methyl-phenyl)cyclopenten-1-yl]methoxy]-2-(trifluoromethyl)phenyl]Propanoic Acid] | 6.72 | 6.61 |
| Cc1ccc(C2=C(COc3ccc(CCC(=O)O)c(C(F)(F)F)c3)CCC2)c(F)c1 [Compound 283, 3-[4-[[2-(2-fluoro-4-methyl-phenyl)cyclopenten-1-yl]methoxy]-2-(trifluoromethyl)phenyl]Propanoic Acid] | 6.63 | 6.45 |
| O=C(O)CCc1ccc(OCC2=C(c3ccc(Cl)c(F)c3)CCC2)cc1C(F)(F)F [Compound 284, 3-[4-[[2-(4-chloro-3-fluoro-phenyl)cyclopenten-1-yl]methoxy]-2-(trifluoromethyl)phenyl]Propanoic Acid] | 6.35 | 7.00 |
| O=C(O)CCc1ccc(OCC2=C(c3ccc(Cl)cc3F)CCC2)cc1C(F)(F)F [Compound 285, 3-[4-[[2-(4-chloro-2-fluoro-phenyl)cyclopenten-1-yl]methoxy]-2-(trifluoromethyl)phenyl]Propanoic Acid] | 6.48 | 6.97 |
| Cc1cc(OCC2=C(c3ccc(Cl)cc3C)CCC2)c(F)cc1CCC(=O)O [Compound 286, 3-[4-[[2-(4-chloro-2-methyl-phenyl)cyclopenten-1-yl]methoxy]-5-fluoro-2-methyl-phenyl]Propanoic Acid] | 5.54 | 6.61 |
| COc1ccc(C2=C(COc3ccc(CCC(=O)O)c(C(F)(F)F)c3)CCC2)c(C)c1 [Compound 287, 3-[4-[[2-(4-methoxy-2-methyl-phenyl)cyclopenten-1-yl]methoxy]-2-(trifluoromethyl)phenyl]Propanoic Acid] | < 5.30 | 6.82 |
| COc1ccc(C2=C(COc3ccc(CCC(=O)O)c(Cl)c3)CCC2)cc1 [Compound 288, 3-[2-chloro-4-[[2-(4-methoxyphenyl)cyclopenten-1-yl]methoxy]phenyl]Propanoic Acid] | 6.07 | 5.97 |
| Cc1cc(OCC2=C(c3ccc(Cl)cc3)CCC2)c(F)cc1CCC(=O)O [Compound 289, 3-[4-[[2-(4-chlorophenyl)cyclopenten-1-yl]methoxy]-5-fluoro-2-methyl-phenyl]Propanoic Acid] | 6.66 | 6.00 |
| CCc1ccc(C2=C(COc3cc(C)c(CCC(=O)O)cc3F)CCC2)cc1 [Compound 290, 3-[4-[[2-(4-ethylphenyl)cyclopenten-1-yl]methoxy]-5-fluoro-2-methyl-phenyl]Propanoic Acid] | 6.38 | < 5.30 |
| Cc1ccc(C2=C(COc3ccc(CCC(=O)O)c(C(F)(F)F)c3)CCC2)c(-c2ccccc2)c1 [Compound 291, 3-[4-[[2-(4-methyl-2-phenyl-phenyl)cyclopenten-1-yl]methoxy]-2-(trifluoromethyl)phenyl]Propanoic Acid] | < 5.30 | 5.85 |
| Cc1ccc(C2=C(COc3ccc(CCC(=O)O)c(C(F)(F)F)c3)CCC2)cc1-c1ccccc1 [Compound 292, 3-[4-[[2-(4-methyl-3-phenyl-phenyl)cyclopenten-1-yl]methoxy]-2-(trifluoromethyl)phenyl]Propanoic Acid] | < 5.30 | 5.77 |
| CCc1ccc(C2=C(COc3ccc(CCC(=O)O)c(Cl)c3)CCC2)cc1 [Compound 293, 3-[2-chloro-4-[[2-(4-ethylphenyl)cyclopenten-1-yl]methoxy]phenyl]Propanoic Acid] | 5.66 | 5.37 |
| CCc1ccc(C2=C(COc3ccc(CCC(=O)O)c(C(F)(F)F)c3)CCC2)cc1 [Compound 294, 3-[4-[[2-(4-ethylphenyl)cyclopenten-1-yl]methoxy]-2-(trifluoromethyl)phenyl]Propanoic Acid] | < 5.30 | 5.45 |
| O=C(O)CCc1ccc(OCC2=C(c3ccccc3Cl)CCC2)cc1Cl [Compound 295, 3-[2-chloro-4-[[2-(2-chlorophenyl)cyclopenten-1-yl]methoxy]phenyl]Propanoic Acid] | 5.78 | 6.63 |
| Cc1ccc(C2=C(COc3ccc(CCC(=O)O)c(Cl)c3)CCC2)cc1F [Compound 296, 3-[2-chloro-4-[[2-(3-fluoro-4-methyl-phenyl)cyclopenten-1-yl]methoxy]phenyl]Propanoic Acid] | 6.80 | 5.97 |
| O=C(O)CCc1ccc(OCC2=C(c3cccc(F)c3)CCC2)cc1Cl [Compound 297, 3-[2-chloro-4-[[2-(3-fluorophenyl)cyclopenten-1-yl]methoxy]phenyl]Propanoic Acid] | 6.37 | 6.23 |

| SMILES | pEC50 [1] | pEC50 [2] |
| --- | --- | --- |
| Cc1cccc(C2=C(COc3ccc(CCC(=O)O)c(Cl)c3)CCC2)c1 [Compound 298, 3-[2-chloro-4-[[2-(m-tolyl)cyclopenten-1-yl]methoxy]phenyl]Propanoic Acid] | 5.79 | 5.80 |
| Cc1cc(OCC2=C(c3ccc(Br)cc3)CCC2)c(F)cc1CCC(=O)O [Compound 299, 3-[4-[[2-(4-bromophenyl)cyclopenten-1-yl]methoxy]-5-fluoro-2-methyl-phenyl]Propanoic Acid] | 6.60 | 6.18 |
| O=C(O)CCc1ccc(OCC2=C(c3ccc(C(F)(F)F)cc3)CCC2)cc1C(F)(F)F [Compound 300, 3-[2-(trifluoromethyl)-4-[[2-[4-(trifluoromethyl)phenyl]cyclopenten-1-yl]methoxy]phenyl]Propanoic Acid] | 5.81 | 6.71 |
| COc1ccc(C2=C(COc3ccc(CCC(=O)O)c(C(F)(F)F)c3)CCC2)cc1 [Compound 301, 3-[4-[[2-(4-methoxyphenyl)cyclopenten-1-yl]methoxy]-2-(trifluoromethyl)phenyl]Propanoic Acid] | 5.82 | 6.35 |
| [2H]C([2H])([2H])c1ccc(C2=C(COc3ccc(CCC(=O)O)c(Cl)c3)CCC2)cc1 [Compound 302-D, 3-[2-chloro-4-[[2-[4-(trideuteriomethyl)phenyl]cyclopenten-1-yl]methoxy]phenyl]Propanoic Acid] | 6.80 | 6.02 |
| [2H]C([2H])([2H])c1ccc(C2=C(COc3cc(C)c(CCC(=O)O)cc3F)CCC2)cc1 [Compound 303-D, 3-[5-fluoro-2-methyl-4-[[2-[4-(trideuteriomethyl)phenyl]cyclopenten-1-yl]methoxy]phenyl]Propanoic Acid] | 6.91 | 5.63 |
| Cc1cc(OCC2=C(c3ccc(F)cc3)CCC2)c(F)cc1CCC(=O)O [Compound 304, 3-[5-fluoro-4-[[2-(4-fluorophenyl)cyclopenten-1-yl]methoxy]-2-methyl-phenyl]Propanoic Acid] | 6.30 | 5.96 |
| CC1CCC(COc2ccc(CCC(=O)O)c(C(F)(F)F)c2)=C1c1ccccc1 (stereo not shown) [Compound 306, 3-[4-[(3-methyl-2-phenyl-cyclopenten-1-yl)methoxy]-2-(trifluoromethyl)phenyl]Propanoic Acid] | 5.95 | 6.46 |
| Cc1ccc(C2=C(COc3ccc(CCC(=O)O)c(C(F)(F)F)c3)CCC2)cc1 [Compound 307, 3-[4-[[2-(p-tolyl)cyclopenten-1-yl]methoxy]-2-(trifluoromethyl)phenyl]Propanoic Acid] | 6.54 | 6.29 |
| O=C(O)CCc1ccc(OCC2=C(c3ccc(OC(F)(F)F)cc3)CCC2)cc1C(F)(F)F [Compound 308, 3-[4-[[2-[4-(trifluoromethoxy)phenyl]cyclopenten-1-yl]methoxy]-2-(trifluoromethyl)phenyl]Propanoic Acid] | < 5.30 | 6.05 |
| Cc1ccc(C2=C(COc3ccc(CCC(=O)O)c(Cl)c3)CCC2)cc1 [Compound 310, 3-[2-chloro-4-[[2-(p-tolyl)cyclopenten-1-yl]methoxy]phenyl]Propanoic Acid] | 6.68 | 5.95 |
| O=C(O)CCc1ccc(OCC2=C(c3ccc(OC(F)(F)F)cc3)CCC2)cc1Cl [Compound 311, 3-[2-chloro-4-[[2-[4-(trifluoromethoxy)phenyl]cyclopenten-1-yl]methoxy]phenyl]Propanoic Acid] | < 5.30 | 6.10 |
| Cc1cccc(C2=C(COc3ccc(CCC(=O)O)c(C(F)(F)F)c3)CCC2)c1 [Compound 312, 3-[4-[[2-(m-tolyl)cyclopenten-1-yl]methoxy]-2-(trifluoromethyl)phenyl]Propanoic Acid] | 6.21 | 6.40 |
| O=C(O)CCc1ccc(OCC2=C(c3ccccc3Cl)CCC2)cc1C(F)(F)F [Compound 313, 3-[4-[[2-(2-chlorophenyl)cyclopenten-1-yl]methoxy]-2-(trifluoromethyl)phenyl]Propanoic Acid] | 6.07 | 6.72 |
| Cc1cc(OCC2=C(Cc3ccccc3)CCC2)c(F)cc1CCC(=O)O [Compound 314, 3-[4-[(2-benzylcyclopenten-1-yl)methoxy]-5-fluoro-2-methyl-phenyl]Propanoic Acid] | 6.12 | 6.34 |
| Cc1cc(CCC(=O)O)ccc1OCC1=C(Cc2ccccc2)CCC1 [Compound 315, 3-[4-[(2-benzylcyclopenten-1-yl)methoxy]-3-methyl-phenyl]Propanoic Acid] | 6.73 | < 5.30 |
